The target of this assay is Neuraminidase (Influenza A virus (A/Puerto Rico/8/1934(H1N1)), UniProt P03468). As to the kind of experiment: Inhibitory activity against influenza A neuraminidase.

IC50 data for 2 compounds are collected here from ChEMBL document CHEMBL1134303, “Systematic structure-based design and stereoselective synthesis of novel multisubstituted cyclopentane derivatives with potent antiinfluenza activity” (J Med Chem, 2001).

Sequence of Neuraminidase (Influenza A virus (A/Puerto Rico/8/1934(H1N1)), UniProt P03468) (P03468 whole entry): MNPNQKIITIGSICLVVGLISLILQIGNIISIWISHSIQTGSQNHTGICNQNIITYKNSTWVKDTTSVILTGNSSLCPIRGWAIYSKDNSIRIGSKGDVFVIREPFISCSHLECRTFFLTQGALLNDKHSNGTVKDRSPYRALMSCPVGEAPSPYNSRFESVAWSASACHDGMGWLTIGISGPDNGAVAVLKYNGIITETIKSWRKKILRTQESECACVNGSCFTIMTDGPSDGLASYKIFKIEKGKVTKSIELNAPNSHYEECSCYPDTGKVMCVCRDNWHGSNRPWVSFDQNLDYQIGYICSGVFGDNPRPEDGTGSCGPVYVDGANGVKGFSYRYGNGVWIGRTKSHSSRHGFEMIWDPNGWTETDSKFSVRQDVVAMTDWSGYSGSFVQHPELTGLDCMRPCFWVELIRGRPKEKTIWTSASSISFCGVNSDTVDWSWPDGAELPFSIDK

Compound `CCC(CC)[C@H](NC(C)=O)[C@@H]1C[C@@H](C(=O)O)C[C@H]1N=C(N)N` displayed an IC50 of under 1 nM.

For `CCC(CC)[C@H](NC(C)=O)[C@@H]1[C@H](O)[C@@H](C(=O)O)C[C@H]1NC(=N)N` [PERAMIVIR ANHYDROUS], the IC50 was under 1 nM.

The term IC50 denotes the concentration needed to halve the response being measured.
